Patent US12077503B2, “Substituted cyclic amides and their use as herbicides” (FMC CORPORATION, priority 2015, dated 2024)

Assays:
Assay type in all cases: in vivo
[1] = tested on: blackgrass (Alopecurus myosuroides); assay: Test A postemergence; conditions: Alopecurus myosuroides, post-emergence, 240 h; for pest or weed control at 125 g/ha: 125 g ai/ha, postemergence, visual injury vs untreated controls after approx. 10 d, 0 = no effect, 100 = complete control, read-out: Blackgrass plant response rating (0 to 100 scale); for pest or weed control at 31 g/ha: Postemergence, 31 g ai/ha, visual injury after approx. 10 d, 0 to 100 scale, 0 no effect, 100 complete control, read-out: Plant response rating, Blackgrass
Method in brief: (§1)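 Visual injury, scored on a 0–100 scale relative to untreated controls, was recorded about 10 d after application. Treatments were a preemergence soil spray over planted seeds or a postemergence spray on plants at the one- to two-leaf stage, 2 to 10 cm tall, all in loam soil–sand blend in the greenhouse.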

[2] = tested on: pigweed (Amaranthus retroflexus); assay: Test A postemergence; conditions: Amaranthus retroflexus, post-emergence, 240 h, 125 g ai/ha, postemergence, visual injury vs untreated controls after approx. 10 d; 0 = no effect, 100 = complete control; read-out: Pigweed plant response rating (0 to 100 scale)
Method in brief: as §1

[3] = tested on: Galium (catchweed bedstraw, Galium aparine); assay: Test A postemergence; conditions: Galium, post-emergence, 240 h; for pest or weed control at 125 g/ha: 125 g ai/ha, postemergence, visual injury vs untreated controls after approx. 10 d, 0 = no effect, 100 = complete control, read-out: Galium plant response rating (0 to 100 scale); for pest or weed control at 31 g/ha: Postemergence, 31 g ai/ha, visual injury after approx. 10 d, 0 to 100 scale, 0 no effect, 100 complete control, read-out: Plant response rating, Galium
Method in brief: as §1

[4] = tested on: giant foxtail (Setaria faberii); assay: Test A postemergence; conditions: Setaria faberi, post-emergence, 240 h; for pest or weed control at 125 g/ha: 125 g ai/ha, postemergence, visual injury vs untreated controls after approx. 10 d, 0 = no effect, 100 = complete control, read-out: Foxtail, Giant plant response rating (0 to 100 scale); for pest or weed control at 31 g/ha: Postemergence, 31 g ai/ha, visual injury after approx. 10 d, 0 to 100 scale, 0 no effect, 100 complete control, read-out: Plant response rating, Foxtail, Giant
Method in brief: as §1

corn (Zea mays) = assay: Test A postemergence; conditions: Zea mays, post-emergence, 240 h; for plant injury at 125 g/ha: 125 g ai/ha, postemergence, visual injury vs untreated controls after approx. 10 d, 0 = no effect, 100 = complete control, read-out: Corn plant response rating (0 to 100 scale); for Corn plant response rating (crop injury, 0 = no effect, 100 = complete kill) at 31 g/ha: Postemergence, 31 g ai/ha, visual injury after approx. 10 d, 0 to 100 scale, 100 complete control
Method in brief: as §1

[5] = tested on: ragweed (common ragweed, Ambrosia elatior); assay: Test A postemergence; conditions: Ambrosia artemisiifolia, post-emergence, 240 h, 125 g ai/ha, postemergence, visual injury vs untreated controls after approx. 10 d; 0 = no effect, 100 = complete control; read-out: Ragweed plant response rating (0 to 100 scale)
Method in brief: as §1

[6] = tested on: wheat (Triticum aestivum); assay: Test A postemergence; conditions: Triticum aestivum, post-emergence, 240 h, 125 g ai/ha, postemergence, visual injury vs untreated controls after approx. 10 d; 0 = no effect, 100 = complete control; read-out: Wheat plant response rating (0 to 100 scale)
Method in brief: as §1

Kochia (Kochia scoparia) [7] = assay: Test A postemergence; conditions: Bassia scoparia, post-emergence, 240 h; for pest or weed control at 125 g/ha: 125 g ai/ha, postemergence, visual injury vs untreated controls after approx. 10 d, 0 = no effect, 100 = complete control, read-out: Kochia plant response rating (0 to 100 scale); for pest or weed control at 31 g/ha: Postemergence, 31 g ai/ha, visual injury after approx. 10 d, 0 to 100 scale, 0 no effect, 100 complete control, read-out: Plant response rating, Kochia
Method in brief: as §1

[8] = tested on: barnyardgrass (Echinochloa crus-galli); assay: Test A postemergence; conditions: Echinochloa crus-galli, post-emergence, 240 h; for pest or weed control at 125 g/ha: 125 g ai/ha, postemergence, visual injury vs untreated controls after approx. 10 d, 0 = no effect, 100 = complete control, read-out: Barnyardgrass plant response rating (0 to 100 scale); for pest or weed control at 31 g/ha: Postemergence, 31 g ai/ha, visual injury after approx. 10 d, 0 to 100 scale, 0 no effect, 100 complete control, read-out: Plant response rating, Barnyardgrass
Method in brief: as §1

[9] = tested on: ryegrass, Italian (Italian ryegrass, Lolium multiflorum); assay: Test A postemergence; conditions: Lolium multiflorum, post-emergence, 240 h, 125 g ai/ha, postemergence, visual injury vs untreated controls after approx. 10 d; 0 = no effect, 100 = complete control; read-out: Ryegrass, Italian plant response rating (0 to 100 scale)
Method in brief: as §1

[10] = tested on: sedge, umbrella (small-flower umbrella sedge, Cyperus difformis); assay: Test B flooded paddy test; conditions: Cyperus difformis, 250 g ai/ha, Flood; 0 to 100 scale where 0 is no effect and 100 is complete control; read-out: Sedge, Umbrella plant response rating
Method in brief: (§2)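 Rating scale 0–100 (visual, vs untreated controls) after a 13–15 d greenhouse period; application to the flood layer, 3 cm above soil and maintained; plants at 2-leaf stage when treated.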

rice (Oryra sativa) = assay: Test B flooded paddy test; conditions: Oryza sativa, 250 g ai/ha, Flood; 0 to 100 scale where 0 is no effect and 100 is complete control; read-out: Rice plant response rating
Method in brief: as §2

[11] = tested on: barnyardgrass (Echinochloa crus-galli); assay: Test B flooded paddy test; conditions: Echinochloa crus-galli, 250 g ai/ha, Flood; 0 to 100 scale where 0 is no effect and 100 is complete control; read-out: Barnyardgrass plant response rating
Method in brief: as §2

[12] = tested on: ducksalad (Heteranthera limosa); assay: Test B flooded paddy test; conditions: Heteranthera limosa, 250 g ai/ha, Flood; 0 to 100 scale where 0 is no effect and 100 is complete control; read-out: Ducksalad plant response rating
Method in brief: as §2

[13] = tested on: pigweed (Amaranthus retroflexus); assay: Test A preemergence; conditions: Amaranthus retroflexus, pre-emergence, 240 h, 0 to 100 scale where 0 is no effect and 100 is complete control, read-out: Pigweed plant response rating; for pest or weed control at 31 g/ha: 31 g ai/ha, Preemergence; for pest or weed control at 125 g/ha: 125 g ai/ha, preemergence
[14] = tested on: giant foxtail (Setaria faberii); assay: Test A preemergence; conditions: Setaria faberi, pre-emergence, 240 h, 0 to 100 scale where 0 is no effect and 100 is complete control, read-out: Foxtail, Giant plant response rating; for pest or weed control at 31 g/ha: 31 g ai/ha, Preemergence; for pest or weed control at 125 g/ha: 125 g ai/ha, preemergence
Method in brief: as §1

[15] = tested on: ragweed (common ragweed, Ambrosia elatior); assay: Test A preemergence; conditions: Ambrosia artemisiifolia, pre-emergence, 240 h, 0 to 100 scale where 0 is no effect and 100 is complete control, read-out: Ragweed plant response rating; for pest or weed control at 31 g/ha: 31 g ai/ha, Preemergence; for pest or weed control at 125 g/ha: 125 g ai/ha, preemergence
Method in brief: as §1

Kochia (Kochia scoparia) [16] = assay: Test A preemergence; conditions: Bassia scoparia, pre-emergence, 240 h, 0 to 100 scale where 0 is no effect and 100 is complete control, read-out: Kochia plant response rating; for pest or weed control at 31 g/ha: 31 g ai/ha, Preemergence; for pest or weed control at 125 g/ha: 125 g ai/ha, preemergence
Method in brief: as §1

[17] = tested on: barnyardgrass (Echinochloa crus-galli); assay: Test A preemergence; conditions: Echinochloa crus-galli, pre-emergence, 240 h, 0 to 100 scale where 0 is no effect and 100 is complete control, read-out: Barnyardgrass plant response rating; for pest or weed control at 31 g/ha: 31 g ai/ha, Preemergence; for pest or weed control at 125 g/ha: 125 g ai/ha, preemergence
Method in brief: as §1

[18] = tested on: ryegrass, Italian (Italian ryegrass, Lolium multiflorum); assay: Test A preemergence; conditions: Lolium multiflorum, pre-emergence, 240 h, 0 to 100 scale where 0 is no effect and 100 is complete control, read-out: Ryegrass, Italian plant response rating; for pest or weed control at 31 g/ha: 31 g ai/ha, Preemergence; for pest or weed control at 125 g/ha: 125 g ai/ha, preemergence
Method in brief: as §1

[19] = visual injury rating, approximately 10 d

`CN1C[C@H](c2ccc(C(F)F)cc2)[C@@H](C(=O)Nc2ccccc2S(C)(=O)=O)C1=O` [Compound 1175] showed a pest or weed control at 125 g/ha [1] of 50%, a pest or weed control at 31 g/ha [1] of 0% and a pest or weed control at 125 g/ha [2] of 20%. The pest or weed control at 125 g/ha [3] was 40%, the pest or weed control at 31 g/ha [3] was 20% and the pest or weed control at 125 g/ha [4] was 80%. For the same compound, the pest or weed control at 31 g/ha [4] was 50%, the plant injury at 125 g/ha (corn (Zea mays)) was 30% and the Corn plant response rating (crop injury, 0 = no effect, 100 = complete kill) at 31 g/ha (corn (Zea mays)) was 0%. The pest or weed control at 125 g/ha [5] was 30%, the plant injury at 125 g/ha [6] was 40% and the pest or weed control at 125 g/ha (Kochia (Kochia scoparia) [7]) was 0%. It also gave a pest or weed control at 31 g/ha (Kochia (Kochia scoparia) [7]) of 0%, a pest or weed control at 125 g/ha [8] of 90% and a pest or weed control at 31 g/ha [8] of 50%. For the same compound, the pest or weed control at 125 g/ha [9] was 50%, the pest or weed control at 250 g/ha [10] was 0% and the pest or weed control at 250 g/ha (rice (Oryra sativa)) was 10%. The pest or weed control at 250 g/ha [11] was 65%, the pest or weed control at 250 g/ha [12] was 90% and the pest or weed control at 31 g/ha [13] was 0%. The pest or weed control at 125 g/ha ([13]; approx. 10 d) was 40%, the pest or weed control at 31 g/ha [14] was 70% and the pest or weed control at 125 g/ha ([14]; approx. 10 d) was 90%. It also gave a pest or weed control at 31 g/ha [15] of 0%, a pest or weed control at 125 g/ha ([15]; approx. 10 d) of 20% and a pest or weed control at 31 g/ha (Kochia (Kochia scoparia) [16]) of 20%. The pest or weed control at 125 g/ha (Kochia (Kochia scoparia) [16]; approx. 10 d) was 50%, the pest or weed control at 31 g/ha [17] was 50% and the pest or weed control at 125 g/ha ([17]; approx. 10 d) was 90%. The pest or weed control at 31 g/ha [18] was 0% and the pest or weed control at 125 g/ha ([18]; approx. 10 d) was 20%.

Work on `COc1ccc(C(F)(F)F)cc1[C@H]1CN(C)C(=O)[C@@H]1C(=O)Nc1cccc(F)c1F` [Compound 1184] yielded a pest or weed control at 125 g/ha [1] of 60%, a pest or weed control at 31 g/ha [1] of 30% and a pest or weed control at 125 g/ha [2] of 0%. It also gave a pest or weed control at 125 g/ha [3] of 20%, a pest or weed control at 31 g/ha [3] of 0% and a pest or weed control at 125 g/ha [4] of 80%. It also gave a pest or weed control at 31 g/ha [4] of 80%, a plant injury at 125 g/ha (corn (Zea mays)) of 40% and a Corn plant response rating (crop injury, 0 = no effect, 100 = complete kill) at 31 g/ha (corn (Zea mays)) of 50%. It also gave a pest or weed control at 125 g/ha [5] of 0%, a plant injury at 125 g/ha [6] of 60% and a pest or weed control at 125 g/ha (Kochia (Kochia scoparia) [7]) of 0%. The pest or weed control at 31 g/ha (Kochia (Kochia scoparia) [7]) was 0%, the pest or weed control at 125 g/ha [8] was 80% and the pest or weed control at 31 g/ha [8] was 70%. The pest or weed control at 125 g/ha [9] was 30%, the pest or weed control at 250 g/ha [10] was 0% and the pest or weed control at 250 g/ha (rice (Oryra sativa)) was 15%. For the same compound, the pest or weed control at 250 g/ha [11] was 90%, the pest or weed control at 250 g/ha [12] was 95% and the pest or weed control at 31 g/ha [13] was 0%. It also gave a pest or weed control at 125 g/ha [13, 19] of 0%, a pest or weed control at 31 g/ha [14] of 80% and a pest or weed control at 125 g/ha [14, 19] of 90%. The pest or weed control at 31 g/ha [15] was 0%, the pest or weed control at 125 g/ha [15, 19] was 0% and the pest or weed control at 31 g/ha (Kochia (Kochia scoparia) [16]) was 0%. For the same compound, the pest or weed control at 125 g/ha (Kochia (Kochia scoparia) [16]; [19]) was 0%, the pest or weed control at 31 g/ha [17] was 90% and the pest or weed control at 125 g/ha [17, 19] was 100%. For the same compound, the pest or weed control at 31 g/ha [18] was 40% and the pest or weed control at 125 g/ha [18, 19] was 50%.
